Assay results reported in ChEMBL document CHEMBL1156504, “Structural characterization of the human androgen receptor ligand-binding domain complexed with EM5744, a rationally designed steroidal ligand bearing a bulky chain directed toward helix 12” (J Biol Chem, 2007).
Activity calls are given as the source filed them. No cut-off for these calls is given here.

Tests used:
Mus musculus [1] = organism: Mus musculus; test: Induction of proliferation of mouse Shionogi cells at 10 pM; assay type: functional
Mus musculus [2] = organism: Mus musculus; test: Inhibition of 5-alpha-dihydrotestosterone-stimulated growth of mouse Shionogi cells at 1 uM; assay type: functional

Compound	Activity (Mus musculus [1])	Activity (Mus musculus [2])
C[C@]12CCC(=O)C[C@@H]1CC[C@@H]1[C@@H]2CC[C@]2(C)[C@@H](O)CC[C@@H]12	Active	–
C[C@]12CCC(=O)C[C@@H]1CC[C@@H]1[C@@H]2CC[C@]2(CCOCc3cc(F)cc(F)c3)[C@@H](O)CC[C@@H]12	Active	inactive
